Data reported in article PMC4348164, “Evidence of more ion channels inhibited by celecoxib: KV1.3 and L-type Ca^2+ channels” (BMC Research Notes, 2015).

Biological target: T1, human KV1.3 channels (Homo sapiens, UniProt P22001)
T1 construct: gene KCNA3; homotetramer
Test: whole-cell patch clamp, CHO cells
Assay type: cell-based

T1 sequence (P22001 whole entry): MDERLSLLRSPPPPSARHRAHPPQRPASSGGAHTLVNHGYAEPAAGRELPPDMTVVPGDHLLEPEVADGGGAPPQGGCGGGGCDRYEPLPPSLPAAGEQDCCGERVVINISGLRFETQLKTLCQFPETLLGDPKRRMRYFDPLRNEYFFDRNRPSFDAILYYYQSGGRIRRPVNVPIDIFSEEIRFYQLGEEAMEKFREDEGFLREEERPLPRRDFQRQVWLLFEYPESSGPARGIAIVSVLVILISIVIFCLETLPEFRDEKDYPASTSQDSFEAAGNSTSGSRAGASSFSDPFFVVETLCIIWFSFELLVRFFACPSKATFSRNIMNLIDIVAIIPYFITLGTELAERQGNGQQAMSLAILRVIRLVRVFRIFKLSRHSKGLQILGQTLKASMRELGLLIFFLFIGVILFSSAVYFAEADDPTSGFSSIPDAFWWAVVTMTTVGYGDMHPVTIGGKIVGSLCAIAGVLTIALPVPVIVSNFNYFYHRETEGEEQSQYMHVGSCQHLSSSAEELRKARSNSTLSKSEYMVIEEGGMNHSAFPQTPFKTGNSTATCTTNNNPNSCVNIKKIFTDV

SMILES: Cc1ccc(-c2cc(C(F)(F)F)nn2-c2ccc(S(N)(=O)=O)cc2)cc1 [celecoxib]
- IC50: 5 µM
